The subject of one data set is MDBK cells. The conditions noted are these: concentrations of up to 1.0 microg/mL.
Data set [1] concerns bovine viral diarrhea virus (BVDV). The class given is cell-based. The conditions noted are these: 30 min preincubation, 0.1 to 1.0 ug/ml oleandrin.
A further data set relates to bovine coronavirus (BCV). The class given is cell-based. The conditions noted are these: HRT cells, therapeutic.
A further data set concerns BT cells. Particulars: concentrations of up to 1.0 microg/mL.
In data set [2] the test system is bovine viral diarrhea virus (BVDV). The class given is cell-based. Particulars: MDBK cells, 48-h time point.
Data set [3] relates to Alkhuma hemorrhagic fever virus. The class given is cell-based.
For the next data set, the system named is cells. Particulars: up to concentrations of 1 microg/mL.
The test system of a further data set is HRT cells. The conditions noted are these: concentrations of up to 1.0 microg/mL.
In data set [4] the test system is Human adenovirus (HAdv-C5). Description: Antiviral activity against human adenovirus. Type of data set: cell-based.
The next data set concerns murine coronavirus. The conditions noted are these: reported; cited from earlier work.
The test system of data set [5] is Omsk hemorrhagic fever virus. Type of data set: cell-based.
Another data set deals with rhinovirus. Description: Antiviral activity against rhinovirus. Type of data set: cell-based. The conditions noted are these: concentrations and assays employed herein.
The subject of the next data set is dengue fever virus. Description: Antiviral activity against dengue fever virus. The class given is cell-based.
The test system of a further data set is MARC 145 cells. The conditions noted are these: concentrations of up to 1.0 microg/mL.
The test system of data set [6] is Kyasanur forest disease virus. The class given is cell-based.
The conditions of data set [7]: in adult dogs; cited from earlier work.
The conditions of data set [8]: in cats; cited from earlier work.
For data set [9] the following is noted: cited from earlier work.
For data set [10] the following is noted: cited from earlier work. This is another data set of the same source.
The conditions of data set [11]: in horses; cited from earlier work.
For data set [12] the following is noted: in turkeys; cited from earlier work.

This is an account of results in US20240261312A1 (priority 2021, published 2024).

“And” between values parts separate entries of the source, which are not always exact repeats. Identical values can stand only once. Like-named read-outs stand apart in the source and are kept apart here. Where only a bound is given, the exact number is not on record here.

What is called half-life is the time needed for the level to fall by half in the phase considered.

Consider `CO[C@H]1C[C@H](O[C@H]2CC[C@@]3(C)[C@H](CC[C@@H]4[C@@H]3CC[C@]3(C)[C@@H](C5=CC(=O)OC5)[C@@H](OC(C)=O)C[C@]43O)C2)O[C@@H](C)[C@@H]1O` [oleandrin], for which, in the data set on MDBK cells, the “toxicity to MDBK cells” value is on record as “not toxic”. Further, the “inhibition of infectivity of progeny” value in data set [1] is 85-93%. The “concentration range over which efficacious” value in the data set with bovine coronavirus (BCV) is no less than 0.01 µg/mL. Also, in the data set with BT cells, the “toxicity to BT cells” value is given as “not toxic”. In data set [2], the “reduction of viral infectivity relative to control” value is on record as 98-100%. The antiviral activity entry (in data set [3]; in data set [4]; with murine coronavirus; in [5]; with dengue fever virus; in [6]) was “inactive” throughout. Besides, in the data set with cells, the “toxicity by release of lactate dehydrogenase” value is on record as “no additional toxicity over control vehicle”. For the same compound, the “toxicity to HRT cells” value with HRT cells is recorded as “not toxic”. Further, in the data set with rhinovirus, the “antiviral activity (inhibition of viral replication)” value is “inactive”. In addition, in the data set with MARC 145 cells, the “toxicity to MARC 145 cells” value is recorded as “not toxic”.

For the compound `C[C@H]1O[C@@H](O[C@H]2[C@@H](O)C[C@H](O[C@H]3[C@@H](O)C[C@H](O[C@H]4CC[C@@]5(C)[C@H](CC[C@@H]6[C@@H]5C[C@@H](O)[C@]5(C)[C@@H](C7=CC(=O)OC7)CC[C@]65O)C4)O[C@@H]3C)O[C@@H]2C)C[C@H](O)[C@@H]1O` [digoxin], the half-life is 4 to 6 h in [7]; 9 to 12 h in data set [8]; 5 to 7 h in data set [9] (in calves); 7 to 9 h in data set [9] (in cattle); 13 to 15 h in data set [10] (in ewes and lambs); 7 to 8 h in data set [10] (in sheep). The half-life in data set [11] was 16 to 18 h and 10 to 23 h; in data set [12] it was 10 to 12 h.
